Laboratory results published in patent US4287201A, “Anovulatory method and chicken feed compositions” (Merck & Co., Inc., priority 1980, dated 1981).
Like-named read-outs stand apart in the source and are kept apart here.

Assays:
laying hens [1] = experiment: Anovulatory Activity (EPI): egg production of prime laying hens fed medicated diet; format: in vivo, laying hens (chicken); conditions: Gallus gallus, 192 h, read-out: EPI: Egg Production Index, % of control egg production for days 5 through 8
Experimental: Anovulatory Activity--(EPI)
Prime laying hens (7-12 months), whose egg production has been documented during the preceding 2 weeks, are fed diet containing medication at 100 ppm for 8 days. Egg production is recorded for days 5 through 8 while the birds are on test, and the Egg Production Index (EPI) is calculated as the % of control egg production for days 5 through 8 inclusive after start of oral medication at 100 ppm.
**Egg Production Index, % of control egg production for days 5 through 8
inclusive after start of oral medication at 100 ppm

laying hens [2] = experiment: Antigonadal Activity (ED20): ovarian weight of prime laying hens fed medicated diet for one week; format: in vivo, laying hens (chicken); conditions: medicated diet for seven days, based on at least 8 hens at 2 dose levels
Experimental: Antigonadal Activity--(ED20)
Prime laying hens (7-12 months), whose egg production has been documented during the preceding 2 weeks, are fed medicated diet for one week at various dose levels. At the conclusion of the one week test, the hens are sacrificed and their reproductive system is excised, examined and weighed. The seven day medication level producing a 20 g ovarian weight, based on at least 8 hens at 2 dose levels is calculated and recorded as ED20.
*Seven day medication level producing a 20 g ovarian weight in laying hen
(based on at least 8 hens at 2 dose levels)

Q: Which response vs control in vivo at 100 ppm, 100 µg/mL (laying hens [1]; po) does the source give for `CCc1cccc(CC)c1N=C1NCCN1` [compound 11] here?
A: 31%

Q: What about the “ED20: seven day medication level producing a 20 g ovarian weight in laying hen” value (“ED20 … in laying hen” below) (laying hens [2]) of the same molecule?
A: 151 ppm

Q: For `Cc1ccc(F)cc1N=C1NCCN1` [compound 8, 2-(5-fluoro-2-methylphenylimino)imidazolidine], which response vs control in vivo at 100 ppm, 100 µg/mL (laying hens [1]; po) is on record?
A: 24%

Q: What about the “ED20 … in laying hen” value (laying hens [2]) of the same molecule?
A: 67 ppm

Q: Which response vs control in vivo at 100 ppm, 100 µg/mL (laying hens [1]; po) does the source give for `Clc1ccccc1N=C1NCCN1` [compound 13, 2-(2-chlorophenylimino)imidazolidine] here?
A: 31%

Q: And the “ED20 … in laying hen” value (laying hens [2])?
A: 217 ppm

Q: How did the response vs control in vivo at 100 ppm, 100 µg/mL (laying hens [1]; po) turn out when `Cc1ccc(C)c(N=C2NCCN2)c1` [compound 14] was run?
A: 70%

Q: What about the “ED20 … in laying hen” value (laying hens [2]) of the same molecule?
A: 250 ppm

Q: Which results are given for `Cc1cccc(C)c1N=C1NCCN1` [compound 1, 2-(2,6-dimethylphenylimino)imidazolidine]?
A: response vs control in vivo at 100 ppm, 100 µg/mL (laying hens [1]; po): 18%; ED20: seven day medication level producing a 20 g ovarian weight in laying hen (laying hens [2]): 38 ppm

Q: `CCc1ccccc1N=C1NCCN1` [compound 10] was tested. Which response vs control in vivo at 100 ppm, 100 µg/mL (laying hens [1]; po) did it give?
A: 31%

Q: And the “ED20 … in laying hen” value (laying hens [2])?
A: 83 ppm

Q: Which results are given for `Cc1c(Cl)cccc1N=C1NCCN1` [compound 2, 2-(3-chloro-2-methylphenylimino)imidazolidine]?
A: response vs control in vivo at 100 ppm, 100 µg/mL (laying hens [1]; po): 26%; ED20: seven day medication level producing a 20 g ovarian weight in laying hen (laying hens [2]): 38 ppm

Q: Which response vs control in vivo at 100 ppm, 100 µg/mL (laying hens [1]; po) does the source give for `Cc1cc(Br)ccc1N=C1NCCN1` [compound 7] here?
A: 24%

Q: What about the “ED20 … in laying hen” value (laying hens [2]) of the same molecule?
A: 56 ppm

Q: Which response vs control in vivo at 100 ppm, 100 µg/mL (laying hens [1]; hens, oral medication in diet at 100 ppm for 8 days, days 5 through 8 inclusive) does the source give for `Clc1cccc(Cl)c1N=C1NCCN1` [compound 15] here?
A: 70%

Q: And the “ED20 … in laying hen” value (laying hens [2])?
A: 400 ppm

Q: What does the source list for `Cc1cc(C)c(N=C2NCCN2)c(C)c1` [compound 6, 2-(2,4,6-Trimethylphenylimino)imidazolidine]?
A: response vs control in vivo at 100 ppm, 100 µg/mL (laying hens [1]; po): 31%; ED20: seven day medication level producing a 20 g ovarian weight in laying hen (laying hens [2]): 54 ppm

Q: For `Cc1ccc(N=C2NCCN2)c(C)c1` [compound 4], which response vs control in vivo at 100 ppm, 100 µg/mL (laying hens [1]; po) is on record?
A: 24%

Q: And the “ED20 … in laying hen” value (laying hens [2])?
A: 50 ppm

Q: How did the response vs control in vivo at 100 ppm, 100 µg/mL (laying hens [1]; po) turn out when `Cc1cc(Cl)ccc1N=C1NCCN1` [compound 5, 2-(4-chloro-2-methylphenylimino)imidazolidine] was run?
A: 24%

Q: And the “ED20 … in laying hen” value (laying hens [2])?
A: 53 ppm

Q: Which response vs control in vivo at 100 ppm, 100 µg/mL (laying hens [1]; po) does the source give for `Cc1cccc(Cl)c1N=C1NCCN1` [compound 3, 2-(6-chloro-2-methylphenylimino)imidazolidine] here?
A: 16%

Q: And the “ED20 … in laying hen” value (laying hens [2])?
A: 40 ppm

Q: Which results are given for `Cc1cccc(N=C2NCCN2)c1C` [compound 12]?
A: response vs control in vivo at 100 ppm, 100 µg/mL (laying hens [1]; po): 86%; ED20: seven day medication level producing a 20 g ovarian weight in laying hen (laying hens [2]): 181 ppm

Q: How did the response vs control in vivo at 100 ppm, 100 µg/mL (laying hens [1]; po) turn out when `Cc1ccccc1N=C1NCCN1` [compound 9] was run?
A: 8%

Q: What about the “ED20 … in laying hen” value (laying hens [2]) of the same molecule?
A: 69 ppm
